Values joined by “and” are separate entries in the source; they are usually repeats but may differ in a detail not shown here. Equal values may be shown once.
What was measured:
[1] = biological target: brain porcine Na^+/K^+-ATPase; assay: In vitro inhibitory assay of Na+/K+-ATPase (colorimetric Pi release); type: biochemical; settings: brain porcine enzyme; mean ± SD; triplicate; read-out: Inhibition of Na^+/K^+-ATPase IC50
Protocol: We used the inhibitory assay method described by [Mugpasao et al. (2014)]. The enzymatic activity of Na^+/K^+-ATPase was determined by colorimetric quantification of orthophosphate (Pi) released during the ATP hydrolysis according to the method of [Taussky, Shorr & Kurzmann (1953)]. The inhibition assays were done using commercial brain porcine Na^+/K^+-ATPase. Protein concentration was determined according to the Bradford method ([Bradford, 1976]) using bovine serum albumin as standard. As inhibitors, we used cardenolides ouabain, calotropin, and C3OG. The cardenolide ouabain was used as a reference molecule. The reaction was done in a 96-wells plate, adding 10 μL of Na^+/K^+-ATPase solution (0.5 U/mL) with 4 μL of NaCl/KCl solution (35 mM of KCl and 1.65 M of NaCl), 70 μL of Tris-HCl buffer (30 mM Tris-HCl, 0.5 mM of EDTA and 7.8 mM of MgCl2) at 37 °C and 30 min with 6 μL either dimethyl sulfoxide (DMSO) or test compounds on each well. The range concentrations of inhibitors were 100.0–0.001 μM of ouabain and 1000.0–0.01 μM of calotropin and C3OG. Then, 20 μL of ATP solution 22 mM was added to each well, and the reaction solution was incubated at 37 °C for 15 min.
Next, we added 30 μL of trichloroacetic acid (TCA) at 30% (w/v) to each well to block the reaction. The 96-wells plate was mixed slightly and centrifuged at 3,000 rpm for 15 min. Finally, 50 μL of the supernatant was transferred to another 96-well plate and were coated with 100 μL of Taussky-Shorr solution. The absorbance was read at 660 nm in a microplate reader ThermoScientific Multiskan (Thermo Fisher, Vantaa, Finland) after incubation of 5 min at room temperature, protected from the light. The color intensity was proportional to the release of orthophosphate, indicating ATP hydrolysis and the Na^+/K^+-ATPase activity. The inhibition of the enzymatic activity by cardenolides was managed in the percentage of Na^+/K^+-ATPase activity compared with control. The data of inhibitory Na^+/K^+-ATPase activity were expressed in IC50 and standard deviation. All experiments were performed in triplicate. […]

[2] = system: porcine brain Na^+/K^+-ATPase; assay: Kinetic analysis of Na+/K+-ATPase inhibition (Michaelis-Menten, Lineweaver-Burk); type: biochemical; settings: for Type of inhibition: Lineweaver-Burk plot, 0.1 and 1.0 μM inhibitor; for Ki: uncompetitive inhibition model, ATP as substrate
Protocol: The Michaelis-Menten kinetic parameters Km and Vmax of porcine brain Na^+/K^+-ATPase were determined from the initial velocities by modifying the ATP concentrations from 0.125 to 4.0 mM using the enzymatic standard conditions previously mentioned. Initial rates were recorded for 15 min in intervals of 3 min. The measurements were done in the absence or presence of inhibitors. The concentration of Na^+, K^+, and Mg^2+ ions remained constant. The initial velocity when the A. subulata cardenolides were tested was recorded for 15 min. Kinetic analyses were carried out in the presence or absence of two different concentrations of cardenolides (0.1 and 1.0 μM) to determine the nature of the inhibition of the Na^+/K^+-ATPase. All experiments were performed in triplicate. The experimental data were fitted to the Michaelis-Menten equation by non-linear regression analysis. The type of inhibition was obtained by Lineweaver-Burk double reciprocal plots using GraphPad Prism software version 8 (GraphPad Software Inc., San Diego, CA, USA).

[3] = biological target: Na^+/K^+-ATPase; set-up: method as in Ren et al., 2020; settings: reference inhibitor; ref Ren et al., 2020; cited from earlier work
[4] = system: A549, PC-3, and LS-180; set-up: method as in Rascón-Valenzuela et al. (2015); settings: human cancer cell lines A549, PC-3, LS-180; ref Rascón-Valenzuela et al. (2015); cited from earlier work
[5] = biological target: porcine cerebral cortex Na^+/K^+-ATPase; set-up: method as in Agrawal et al. (2021); settings: porcine cerebral cortex enzyme; ref Agrawal et al. (2021); cited from earlier work
[6] = in presence of 0.1 μM inhibitor
[7] = in presence of 1.0 μM inhibitor

| Structure (SMILES) | IC50 [1] [nM] | Type of inhibition [2] | Vmax [2, 6] [μmolPi/mg/min] | Vmax [2, 7] [μmolPi/mg/min] | Ki [2] | IC50 [3] [nM] | IC50 (cytotoxicity) [4] | IC50 [5] [nM] |
| --- | --- | --- | --- | --- | --- | --- | --- | --- |
| C[C@@H]1O[C@@H](O[C@H]2C[C@@H](O)[C@]3(CO)[C@H]4[C@H](O)C[C@]5(C)[C@@H](C6=CC(=O)OC6)CC[C@]5(O)[C@@H]4CC[C@]3(O)C2)[C@H](O)[C@H](O)[C@H]1O [Ouabain, ouabain octahydrate, reference compound] | 120 ± 20 | uncompetitive | 2.11 ± 0.14 | 0.66 ± 0.04 | 160 nM |  |  |  |
| C[C@H]1O[C@@H](O[C@H]2[C@@H](O)C[C@H](O[C@H]3[C@@H](O)C[C@H](O[C@H]4CC[C@@]5(C)[C@H](CC[C@@H]6[C@@H]5C[C@@H](O)[C@]5(C)[C@@H](C7=CC(=O)OC7)CC[C@]65O)C4)O[C@@H]3C)O[C@@H]2C)C[C@H](O)[C@@H]1O [digoxin] |  |  |  |  |  | 230 |  |  |
| C[C@]12CCC3C(CCC4C[C@@H](O[C@@H]5O[C@H](CO)[C@@H](O)[C@H](O)[C@H]5O)CC[C@@]43C=O)[C@@]1(O)CC[C@@H]2C1=CC(=O)OC1 (stereo partly shown) [C3OG, corotoxigenin 3-O-glucopyranoside] | 870 ± 200 | Uncompetitive | 1.47 ± 0.08 | 0.80 ± 0.06 | 500 nM and 520 nM |  | micromolar order |  |
| C[C@@H]1C[C@H](O)[C@]2(O)O[C@@H]3C[C@@]4(C=O)[C@@H](CC[C@@H]5[C@@H]4CC[C@]4(C)[C@@H](C6=CC(=O)OC6)CC[C@]54O)C[C@H]3O[C@@H]2O1 [Calotropin, calotropin] | 270 ± 60 | Uncompetitive | 2.17 ± 0.10 | 0.77 ± 0.10 | 200 ± 30 nM |  | nanomolar order | 270 |

Source: article PMC9167584, “Calotropin and corotoxigenin 3-O-glucopyranoside from the desert milkweed Asclepias subulata inhibit the Na^+/K^+-ATPase activity” (PeerJ, 2022)
